According to US20220323443A1, “COMBINATION THERAPY FOR CANCER TREATMENT” (TAKEDA PHARMACEUTICAL COMPANY LIMITED, priority 2019, published 2022):
Structures can show the parent of a compound that is named as a salt. Where two headings read alike, the source gives them in different places. *1 amine or outer side, *2 acyl side, *3 side chain or, on linkers, in order; H or OH if unused. Where a SMILES comes first, the peptide text is derived from it. Bridges are numbered along the chain shown (N, C = ends). Roman numbers before positions name the chains, in order. [ ]: non-standard residue; d: D form. Actinocin(9to1) = Cc1c2oc3c(C)ccc(C(=O)[*:1])c3nc-2c(C(=O)[*:2])c(N)c1=O; NMeV = CN[C@H](C(=O)O)C(C)C; Sar = CNCC(=O)O

Key:
Assay in all cases: In vitro combination study with Compound 1, Cell Titer-Glo (ATP) cell viability, 72 h;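 for Call, anti-proliferative effect of combination with Compound 1, A549: Ten-by-ten dose matrices of the two agents in duplicate, compounds added 16 h post-plating, activity relative to DMSO vehicle wells, call reflects synergy evaluation from luminescence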;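 for Call, anti-proliferative effect of combination with Compound 1, COLO205: Ten-by-ten dose matrices of both agents in duplicate plus single-agent dilutions, luminescent ATP read-out, percent activity per well relative to DMSO vehicle wells, synergy call from these matrices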;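 for Call, anti-proliferative effect of combination with Compound 1, H460: Ten-by-ten dose matrices of both drugs alongside single-agent dilutions, luminescence read 72 hours after compound addition, percent activity per well versus vehicle (DMSO) plate controls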;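 for Call, anti-proliferative effect of combination with Compound 1, HCT116: combination call from 10×10 dose matrices in duplicate, graded by synergy, with percent activity per well relative to DMSO vehicle controls on the same plate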;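 for Call, anti-proliferative effect of combination with Compound 1, SW620: Ten-by-ten dose matrices of both drugs in 384-well plates, luminescent ATP read-out, synergy evaluated against single-agent and DMSO vehicle controls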
[1] = system: HCT116 cancer cells; type: cell-based;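 note: combination call from 10×10 dose matrices in duplicate, graded by synergy, with percent activity per well relative to DMSO vehicle controls on the same plate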
Description: (§1) Each combination pair was evaluated in an individual 384-well plate which contained variable doses of both compounds as single agents, as well as two, ten-by-ten matrices (in duplicate) that contained mixtures of the two test compounds. In brief, compounds were added to the cell test plates 16 hours after cell plating and then assessed for viability 72 hours later. Continuous cultures of tumor cells were maintained under standard cell culturing conditions (i.e. in a humidified chamber set at 37° C., containing atmosphere 5% carbon dioxide). […] Seventy-two hours after compound addition, ATP levels were measured to assess cell viability. Plating densities were chosen to ensure optimal linear growth over the 72 hour period.
(§2) Compound dilution and compound delivery to the assay plates were done on HighRes Robotic System (HighRes Biosolutions, Woburn, Mass., USA) with Echo™ Liquid Handler (Labcyte, Sunnyvale, Calif., USA). […] Next, these were used for compound transfer into cell assay plates. All wells were back-filled to give a constant percentage of DMSO.
(§3) The final DMSO concentration was held constant in all wells across the plate and was maintained at less than 0.5%. […] Cells treated with vehicle (DMSO) in two rows, or single compound serial dilutions in one plate columns/row served as the untreated control and single compound controls, respectively.
(§4) Compound activity in A549, COLO205, H460, HCT116, SW48, SW620 cancer cell lines was assessed using Cell Titer-Glo® (Promega [Madison, Wis., USA]). After 72 hours incubation, the plates were treated as per package insert protocol for the Promega Luminescence ATP Detection Systems. Briefly, 25 μL of cell lysis/substrate solution (provided in kit form) was added to each well and the plate was incubated at room temperature for 10 minutes. Luminescence was measured using a PHERAstar multi-label counter (BMG Labtech [Ortenberg, Germany]) or LEADseeker (GE Healthcare Life Sciences [Piscataway, N.J., USA]).
(§5) Numerical luminescence values were analyzed to generate EC50 curves and evaluate synergy. Raw Data reader files were uploaded along with automation workfiles that defined the plate and well contents. Percent activities were calculated for each well versus plate controls.
(§6) Each plate representing a single drug combination was analyzed separately. First, the viability measurements were normalized by scaling the data so that the median of the negative controls was 0 and the median of the positive controls was 100.
(§7) For the combination analysis, a response surface model was used to describe the relationship between the normalized viability and the drug concentrations. The data were fit to the model by minimizing the residual sum of squares. Based on the fitted response surface, plots of constant viability, called isobolograms, were produced.
(§8) The Combination Index and Nonlinear Blending were used as measures of drug synergy. To calculate Combination Index the 50% isobologram (which is the dose contour that has 50% viability) was used. […] A standard procedure was created to produce a call in order to characterize the viability effects for each combination (synergy, additivity, subadditivity, or antagonism). If the Combination Index existed then these measures were used to make the call.

[2] = system: A549 cancer cells; type: cell-based;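 note: Ten-by-ten dose matrices of the two agents in duplicate, compounds added 16 h post-plating, activity relative to DMSO vehicle wells, call reflects synergy evaluation from luminescence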
[3] = system: SW620 cancer cells; type: cell-based;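 note: Ten-by-ten dose matrices of both drugs in 384-well plates, luminescent ATP read-out, synergy evaluated against single-agent and DMSO vehicle controls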
Description: as §1, §2, §3, §4, §5, §6, §7, §8

[4] = system: H460 cancer cells; type: cell-based;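 note: Ten-by-ten dose matrices of both drugs alongside single-agent dilutions, luminescence read 72 hours after compound addition, percent activity per well versus vehicle (DMSO) plate controls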
[5] = system: COLO205 cancer cells; type: cell-based, human;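 note: Ten-by-ten dose matrices of both agents in duplicate plus single-agent dilutions, luminescent ATP read-out, percent activity per well relative to DMSO vehicle wells, synergy call from these matrices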
[6] = Table 5 drug combined with Compound 1, 72 h
[7] = DNA damaging agent combined with Compound 1, 72 h

Molecule | Call, anti-proliferative effect of combination with Compound 1, HCT116 [1, 6] | Call, anti-proliferative effect of combination with Compound 1, A549 [2, 6] | Call, anti-proliferative effect of combination with Compound 1, SW620 [3, 6] | Call, anti-proliferative effect of combination with Compound 1, COLO205 [5, 6] | Call, anti-proliferative effect of combination with Compound 1, HCT116 [1, 7] | Call, anti-proliferative effect of combination with Compound 1, SW620 [3, 7] | Call, anti-proliferative effect of combination with Compound 1, H460 [4, 7] | Call, anti-proliferative effect of combination with Compound 1, COLO205 [5, 7] | Call, anti-proliferative effect of combination with Compound 1, H460 [4, 6] | other results
Cc1cc2c(C(C)C)c(O)c(O)c(C=O)c2c(O)c1-c1c(C)cc2c(C(C)C)c(O)c(O)c(C=O)c2c1O [AT101] |  |  |  |  |  |  |  |  |  | Call, anti-proliferative effect of combination with Compound 1, HCT116 [1]: Additivity (key: Inconclusive: Any; Additivity: 0.7 to 1.3; Synergy: 0 to 0.7; Subadditivity: 1.3 to 2; Antagonism: >2); Call, anti-proliferative effect of combination with Compound 1, A549 [2]: Additivity (key: Inconclusive: Any; Additivity: 0.7 to 1.3; Synergy: 0 to 0.7; Subadditivity: 1.3 to 2; Antagonism: >2); Call, anti-proliferative effect of combination with Compound 1, SW620 [3]: Additivity (key: Inconclusive: Any; Additivity: 0.7 to 1.3; Synergy: 0 to 0.7; Subadditivity: 1.3 to 2; Antagonism: >2); Call, anti-proliferative effect of combination with Compound 1, H460 [4]: Additivity (key: Inconclusive: Any; Additivity: 0.7 to 1.3; Synergy: 0 to 0.7; Subadditivity: 1.3 to 2; Antagonism: >2); Call, anti-proliferative effect of combination with Compound 1, COLO205 [5]: Additivity (key: Inconclusive: Any; Additivity: 0.7 to 1.3; Synergy: 0 to 0.7; Subadditivity: 1.3 to 2; Antagonism: >2)
CCNC(=O)c1noc(-c2cc(C(C)C)c(O)cc2O)c1-c1ccc(CN2CCOCC2)cc1 [AUY-922] | Additivity (0.7 to 1.3) | Additivity (0.7 to 1.3) | Additivity (0.7 to 1.3) | Additivity (0.7 to 1.3) |  |  |  |  |  | 
CN1CC[C@H](c2c(O)cc(O)c3c(=O)cc(-c4ccccc4Cl)oc23)[C@H](O)C1 [Alvocidib] | Additivity (0.7 to 1.3) | Additivity (0.7 to 1.3) | Subadditivity (1.3 to 2) | Additivity (0.7 to 1.3) |  |  |  |  |  | 
C[C@@]1(CO)[C@H](O)CC[C@@]2(C)[C@H]1CC[C@H]1C[C@@H]3C[C@@]12CC[C@]3(O)COC(=O)CN.Cl [Aphidicolin glycinate] |  |  |  |  | Synergy (0 to 0.7) | Additivity (0.7 to 1.3) | Additivity (0.7 to 1.3) | Additivity (0.7 to 1.3) |  | Call, anti-proliferative effect of combination with Compound 1, A549 [2]: Additivity (key: Inconclusive: Any; Additivity: 0.7 to 1.3; Synergy: 0 to 0.7; Subadditivity: 1.3 to 2; Antagonism: >2)
Nc1cc(C(F)(F)F)c(-c2cc(N3CCOCC3)nc(N3CCOCC3)n2)cn1 [BKM-120] | Additivity (0.7 to 1.3) | Additivity (0.7 to 1.3) | Additivity (0.7 to 1.3) | Additivity (0.7 to 1.3) |  |  |  |  | Additivity (0.7 to 1.3) | 
CO/C1=C\C(C)=C\[C@@H](C)[C@@H](O)[C@@H](C)C/C(C)=C/C=C/[C@H](OC)[C@@H]([C@@H](C)[C@@H](O)[C@H](C)[C@@]2(O)C[C@@H](O)[C@H](C)[C@@H](C(C)C)O2)OC1=O [Bafilomycin A] | Additivity (0.7 to 1.3) |  | Additivity (0.7 to 1.3) | Subadditivity (1.3 to 2) |  |  |  |  | Additivity (0.7 to 1.3) | Call, anti-proliferative effect of combination with Compound 1, A549 [2]: Additivity (key: Inconclusive: Any; Additivity: 0.7 to 1.3; Synergy: 0 to 0.7; Subadditivity: 1.3 to 2; Antagonism: >2)
C[C@H]1CCC/C=C/[C@@H]2C[C@H](O)C[C@H]2[C@H](O)/C=C/C(=O)O1 [Brefeldin A] |  |  |  |  | Additivity (0.7 to 1.3) | Additivity (0.7 to 1.3) | Additivity (0.7 to 1.3) | Subadditivity (1.3 to 2) |  | Call, anti-proliferative effect of combination with Compound 1, A549 [2, 7]: Additivity (0.7 to 1.3)
CS(=O)(=O)OCCCCOS(C)(=O)=O [Busulfan] |  |  |  |  |  |  |  | Synergy (0 to 0.7) |  | 
C=CCNC1=C2C[C@@H](C)C[C@H](OC)[C@H](O)[C@@H](C)/C=C(\C)[C@H](OC(N)=O)[C@@H](OC)/C=C\C=C(/C)C(=O)NC(=CC1=O)C2=O [Compound 17-AAG] | Additivity (0.7 to 1.3) | Additivity (0.7 to 1.3) | Additivity (0.7 to 1.3) | Additivity (0.7 to 1.3) |  |  |  |  | Additivity (0.7 to 1.3) | 
CO[C@H]1/C=C\C=C(/C)C(=O)NC2=CC(=O)C(NCCN(C)C)=C(C[C@@H](C)C[C@H](OC)[C@H](O)[C@@H](C)/C=C(\C)[C@@H]1OC(N)=O)C2=O [Compound 17-DMAG] | Additivity (0.7 to 1.3) | Subadditivity (1.3 to 2) | Additivity (0.7 to 1.3) | Additivity (0.7 to 1.3) |  |  |  |  | Additivity (0.7 to 1.3) | 
Nc1ccn([C@@H]2O[C@H](CO)[C@@H](O)[C@@H]2O)c(=O)n1 [Cytarabine] |  |  |  |  | Additivity (0.7 to 1.3) | Synergy (0 to 0.7) | Additivity (0.7 to 1.3) | Synergy (0 to 0.7) |  | Call, anti-proliferative effect of combination with Compound 1, A549 [2, 7]: Additivity (0.7 to 1.3)
CN(C)/N=N/c1[nH]cnc1C(N)=O [Dacarbazine] |  |  |  |  | Additivity (0.7 to 1.3) |  |  |  |  | 
Cc1c2oc3c(C)ccc(C(=O)N[C@@H]4C(=O)N[C@H](C(C)C)C(=O)N5CCC[C@H]5C(=O)N(C)CC(=O)N(C)[C@@H](C(C)C)C(=O)O[C@@H]4C)c3nc-2c(C(=O)N[C@@H]2C(=O)N[C@H](C(C)C)C(=O)N3CCC[C@H]3C(=O)N(C)CC(=O)N(C)[C@@H](C(C)C)C(=O)O[C@@H]2C)c(N)c1=O [Dactinomycin] (I: T[dV]P[Sar][NMeV] / II: T[dV]P[Sar][NMeV]; ester I:1-I:C, II:1-II:C; linker I:N-II:N via Actinocin(9to1)) |  |  |  |  | Additivity (0.7 to 1.3) | Additivity (0.7 to 1.3) | Additivity (0.7 to 1.3) | Additivity (0.7 to 1.3) |  | Call, anti-proliferative effect of combination with Compound 1, A549 [2]: Additivity (key: Inconclusive: Any; Additivity: 0.7 to 1.3; Synergy: 0 to 0.7; Subadditivity: 1.3 to 2; Antagonism: >2)
COc1cccc2c1C(=O)c1c(O)c3c(c(O)c1C2=O)C[C@@](O)(C(=O)CO)C[C@@H]3O[C@H]1C[C@H](N)[C@H](O)[C@H](C)O1 [Doxorubicin hydrochloride] |  |  |  |  | Subadditivity (1.3 to 2) | Additivity (0.7 to 1.3) | Synergy (0 to 0.7) | Synergy (0 to 0.7) |  | Call, anti-proliferative effect of combination with Compound 1, A549 [2, 7]: Synergy (0 to 0.7)
CN1CC[C@H](c2c(O)cc(O)c3c(=O)cc(-c4ccccc4Cl)oc23)[C@H](O)C1 [Flavopiridol] |  |  |  |  |  |  |  |  | Additivity (0.7 to 1.3) | 
S=c1nc[nH]c2nc[nH]c12 [Mercaptopurine] |  |  |  |  | Additivity (0.7 to 1.3) | Subadditivity (1.3 to 2) | Additivity (0.7 to 1.3) | Additivity (0.7 to 1.3) |  | 
Nc1nc(OCc2ccccc2)c2nc[nH]c2n1 [O6-Benzylguanine] |  |  |  |  |  |  |  | Additivity (0.7 to 1.3) |  | 
CO[C@@H]1[C@H](N(C)C(=O)c2ccccc2)C[C@H]2O[C@]1(C)n1c3ccccc3c3c4c(c5c6ccccc6n2c5c31)C(=O)NC4 [PKC412] | _Additivity |  | Additivity (0.7 to 1.3) | Subadditivity (1.3 to 2) |  |  |  |  | Antagonism (>2) | 
CCCS(=O)(=O)Nc1ccc(F)c(C(=O)c2c[nH]c3ncc(-c4ccc(Cl)cc4)cc23)c1F [PLX4032] | Additivity (0.7 to 1.3) | Additivity (0.7 to 1.3) |  | Additivity (0.7 to 1.3) |  |  |  |  | Additivity (0.7 to 1.3) | 
Tunicamycin | Synergy (0 to 0.7) |  | Additivity (0.7 to 1.3) | Additivity (0.7 to 1.3) |  |  |  |  | Additivity (0.7 to 1.3) | 
